Assay results as given in patent publication US9376426B2, “Pyridazinone derivatives” (MERCK PATENT GMBH, priority 2009, dated 2016).
Counter-ions that a name gives are not always drawn.

Assays:
Met kinase [1] = molecular target: T1, Met kinase (Homo sapiens, UniProt P08581); experiment: Met kinase inhibition (cell); assay type: cell-based
Met kinase [2] = molecular target: T1, Met kinase; experiment: Met kinase inhibition, flashplate method (enzyme); assay type: biochemical; design: 6His (N); purchased Upstate 14-526; host or cells: Sf21 insect cells (S. frugiperda), baculovirus
From the text: Measurement of Met Kinase Activity
According to the manufacturer's data (Met, active, upstate, catalogue No. 14-526), Met kinase is expressed for the purposes of protein production in insect cells (Sf21; S. frugiperda) and subsequent affinity-chromatographic purification as “N-terminal 6His-tagged” recombinant human protein in a baculovirus expression vector.
Flashplate Method (Met Kinase)
The test plates used are 96-well Flashplate® microtitre plates from Perkin Elmer (Cat. No. SMP200). The components of the kinase reaction described below are pipetted into the assay plate. The Met kinase and the substrate poly Ala-Glu-Lys-Tyr, (pAGLT, 6:2:5:1), are incubated for 3 hrs at room temperature with radioactively labelled ^33P-ATP in the presence and absence of test substances in a total volume of 100 μl. The reaction is terminated using 150 μl of a 60 mM EDTA solution. After incubation for a further 30 min at room temperature, the supernatants are filtered off with suction, and the wells are washed three times with 200 μl of 0.9% NaCl solution each time. The measurement of the bound radioactivity is carried out by means of a scintillation measuring instrument (Topcount NXT, Perkin-Elmer).
The full value used is the inhibitor-free kinase reaction. This should be approximately in the range 6000-9000 cpm. The pharmacological zero value used is staurosporin in a final concentration of 0.1 mM. The inhibitory values (IC50) are determined using the RS1_MTS program.
Kinase reaction conditions per well:
10 μl of substance to be tested in assay buffer with 10% of DMSO
10 μl of ATP (final concentration 1 μM cold, 0.35 μCi of ^33P-ATP)
50 μl of Met kinase/substrate mixture in assay buffer;
• (10 ng of enzyme/well, 50 ng of pAGLT/well) • Solutions used: • Assay buffer: • 50 mM HEPES • 3 mM magnesium chloride • 3 μM sodium orthovanadate • 3 mM manganese(II) chloride • 1 mM dithiothreitol (DTT) • pH=7.5 (to be set using sodium hydroxide) • Stop solution: • 60 mM Titriplex III (EDTA) • ^33P-ATP: Perkin-Elmer; • Met kinase: Upstate, Cat. No. 14-526, Stock 1 μg/10 μl; spec. activity 954 U/mg; • Poly-Ala-Glu-Lys-Tyr, 6:2:5:1:Sigma Cat. No. P1152 In-Vivo Tests Experimental Procedure: […]

T1 sequence (P08581 25-1390): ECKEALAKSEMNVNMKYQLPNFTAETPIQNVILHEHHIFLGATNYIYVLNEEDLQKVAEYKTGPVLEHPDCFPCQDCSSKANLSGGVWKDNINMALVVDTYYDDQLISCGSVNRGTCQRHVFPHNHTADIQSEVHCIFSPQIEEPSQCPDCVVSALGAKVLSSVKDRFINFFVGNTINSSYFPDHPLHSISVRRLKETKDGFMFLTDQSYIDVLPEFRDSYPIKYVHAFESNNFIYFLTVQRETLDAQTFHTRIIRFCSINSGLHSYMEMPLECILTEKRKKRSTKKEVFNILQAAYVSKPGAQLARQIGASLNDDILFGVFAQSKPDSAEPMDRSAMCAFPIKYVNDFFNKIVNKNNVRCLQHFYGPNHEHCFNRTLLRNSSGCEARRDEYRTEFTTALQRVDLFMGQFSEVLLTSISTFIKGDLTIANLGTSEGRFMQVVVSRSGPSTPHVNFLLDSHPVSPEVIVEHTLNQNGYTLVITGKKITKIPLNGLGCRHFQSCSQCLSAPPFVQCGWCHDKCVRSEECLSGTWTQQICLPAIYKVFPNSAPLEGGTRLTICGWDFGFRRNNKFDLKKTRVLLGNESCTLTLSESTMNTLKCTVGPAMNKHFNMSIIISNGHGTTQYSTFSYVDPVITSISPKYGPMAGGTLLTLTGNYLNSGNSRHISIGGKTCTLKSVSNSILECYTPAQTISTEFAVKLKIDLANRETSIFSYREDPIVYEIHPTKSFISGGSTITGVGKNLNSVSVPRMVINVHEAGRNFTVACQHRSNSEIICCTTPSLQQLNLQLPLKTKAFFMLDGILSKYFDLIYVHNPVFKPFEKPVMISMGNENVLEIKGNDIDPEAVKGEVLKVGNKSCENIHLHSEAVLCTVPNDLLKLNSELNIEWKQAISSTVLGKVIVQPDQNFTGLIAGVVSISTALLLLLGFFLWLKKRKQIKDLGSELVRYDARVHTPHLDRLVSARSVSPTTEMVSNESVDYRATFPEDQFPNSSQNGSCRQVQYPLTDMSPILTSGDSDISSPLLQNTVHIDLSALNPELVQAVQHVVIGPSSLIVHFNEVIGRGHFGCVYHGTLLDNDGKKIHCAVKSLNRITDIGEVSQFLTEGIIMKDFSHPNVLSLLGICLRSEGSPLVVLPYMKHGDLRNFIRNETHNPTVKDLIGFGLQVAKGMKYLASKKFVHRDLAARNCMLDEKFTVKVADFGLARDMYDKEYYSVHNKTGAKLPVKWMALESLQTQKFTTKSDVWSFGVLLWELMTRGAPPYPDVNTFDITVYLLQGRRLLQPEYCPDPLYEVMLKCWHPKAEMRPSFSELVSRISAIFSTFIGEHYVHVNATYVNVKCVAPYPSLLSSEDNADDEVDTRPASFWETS

IC50 (Met kinase [1]) [nM] | IC50 (Met kinase [2]) [nM] | Compound
100 to 10000 | 1 to 100 | CN(C)CCCOc1cnc(-c2cccc(Cn3nc(Nc4ccccc4)ccc3=O)c2)nc1 [Compound A1, 2-{3-[5-(3-dimethylaminopropoxy)pyrimidin-2-yl]benzyl}-6-phenylamino-2H-pyridazin-3-one]
100 to 10000 | 1 to 100 | O=c1ccc(Nc2ccccc2)nn1Cc1cccc(-c2ncc(-c3cnn(C4CCNCC4)c3)cn2)c1 [Compound A2, 6-phenylamino-2-{3-[5-(1-piperidin-4-yl-1H-pyrazol-4-yl)pyrimidin-2-yl]benzyl}-2H-pyridazin-3-one]
100 to 10000 | 1 to 100 | O=c1ccc(Oc2ccccc2)nn1Cc1cccc(-c2ncc(-c3cnn(CCN4CCCC4)c3)cn2)c1 [Compound A3, 6-phenoxy-2-(3-{5-[1-(2-pyrrolidin-1-ylethyl)-1H-pyrazol-4-yl]pyrimidin-2-yl}benzyl)-2H-pyridazin-3-one]
100 to 10000 | 100 to 10000 | O=c1ccc(Oc2ccccc2)nn1Cc1cccc(-c2ncc(-c3cnn(C4CCNCC4)c3)cn2)c1 [Compound A4, 6-phenoxy-2-{3-[5-(1-piperidin-4-yl-1H-pyrazol-4-yl)pyrimidin-2-yl]benzyl}-2H-pyridazin-3-one hydrochloride]
100 to 10000 | 100 to 10000 | CN(C)CCCOc1cnc(-c2cccc(Cn3nc(C(N)=O)ccc3=O)c2)nc1 [Compound A8, 1-{3-[5-(3-dimethylaminopropoxy)pyrimidin-2-yl]benzyl}-6-oxo-1,6-dihydropyridazine-3-carboxamide]
